Read-outs that look alike come from different tables or passages of the source.
Columns and labels:
lipoxygenase = experiment: Rat Polymorphonuclear Leukocyte Assay, lipoxygenase products (leukotriene B4, 5-HETE); format: cell-based; conditions: 10 min, 10 μM drug concentration, minus=decrease, plus=increase relative to control (no drug), A23187-stimulated, 3H arachidonic acid
Protocol: (§1) A test for lipoxygenase and cyclooxygenase inhibitory activity is the Rat Polymorphonuclear Leukocyte Assay. The assay is carried out as follows: glycogen-elicited rat peritoneal cells (10^7 /1.0 mL) are incubated (37° C.)±drug in a shaking water bath for 10 minutes. One micromolar (final concentration) ^3 H arachidonic acid (2.0 μCi) is then added to each sample followed by the immediate addition of 1.0 micromolar A23187* (final concentration). The cells are incubated another 10 minutes and the reaction is stopped by high-speed centrifugation. Supernatants are then analyzed by HPLC using an in-line radioactivity detector. […] Results are qualitatively expressed as a percent change (minus=decrease, plus=increase) relative to the control (no drug). [drawing 20]

cyclooxygenase = experiment: Rat Polymorphonuclear Leukocyte Assay, cyclooxygenase products (thromboxane B2, prostaglandin E2); format: cell-based; conditions: 10 min, 10 μM drug concentration, minus=decrease, plus=increase relative to control (no drug), A23187-stimulated, 3H arachidonic acid
Protocol: as §1

[1] = tested on: Freund's complete adjuvant-induced hind paw edema in rats; experiment: Preventative Adjuvant Edema (Freund's complete adjuvant hind paw edema, acute anti-inflammatory effect); format: in vivo, Male Sprague Dawley rats; conditions: 25 mg/kg, p.o.; rat; edema volume day 0 to day 3
Protocol: This test is a primary screen for anti-inflammatory drugs.
Male Sprague Dawley rats (180-200 g) are used. The animals have free access to water but food is withdrawn 18 hours before testing.
Freund's complete adjuvant is prepared by suspending 5 mg of killed and dried Mycobacterium butyricum (Difco) in 1 mL liquid paraffin. The test compounds are dissolved in distilled water or suspended in 0.5% Tween 80 in distilled water according to their solubility. For primary screening all drugs are administered by gastric gavage at the arbitrary dosage of 25 mg/kg, p.o. in a volume of 0.5 mL/100 g body weight to groups of 10 animals.
The method is essentially that described by Wax et al, J. Pharmacol. Exp. Ther., 192, 166-171 (1975). Groups of rats are injected intradermally in the left hind paw with 0.1 mL of Freund's complete adjuvant. The test compound or vehicle is administered immediately before the adjuvant, 24 hours and 48 hours after the adjuvant (days 0, 1 and 2). The injected hind paw volume is measured before the injection of adjuvant and 24 hours after the last drug administration (day 3) by means of a plethysomometer (Buxco Electronics Inc.). The difference between the hind paw volume on day 0 and day 3 represents the edema volume. Etodolac (25 mg/kg, p.o.) is included as a positive control.
The mean edema volume (expressed as mL±SEM) is calculated for each group and the percentage inhibition of inflammation conferred by the drug is calculated: [formula] where c is the mean edema volume for the untreated controls and t is the mean edema volume for the drug treated group.

[2] = tested on: Phenylbenzoquinone-induced writhing in mice; experiment: Phenylbenzoquinone-induced Writhing in Mice (analgesic activity); format: in vivo, Male Swiss albino mice; conditions: 10 mg/kg, p.o.; mouse; writhes in 15 minutes, PBQ i.p. 60 minutes after dosing
Protocol: A further test used to determine the utility of the compounds of the present invention is designated: Drug Effects on Phenylbenzoquinone-induced Writhing in Mice.
The objective of this test is to determine the ability of test drugs to inhibit the nociceptive (pain) response of mice injected with a chemical irritant. This test is a primary screen for both peripherally and centrally acting analgesic drugs.
Male Swiss albino mice (15-25 g) are used. The animals are fasted for 18 hours prior to use but have free access to water.
Drugs are dissolved or suspended according to their solubility in 0.5% Tween 80 in distilled water. They are administered by gastric gavage in a volume of 5 mL/kg. For primary screening all drugs are administered at the arbitrary dosage of 10 mg/kg, p.o. to a group of 10 mice.
A modification of the method of Siegmund et al., Proc. Soc. Exp. Biol. Med., 95, 729-731 (1957) is used. Groups of 5 mice are dosed with the test compound or vehicle control. Sixty minutes later the animals are injected i.p. with 0.3 mL/20 g body weight of a 0.02% solution of phenylbenzoquinone (PBQ; 2-phenyl-1,4-benzoquinone) and placed in individual observation boxes. The number of writhes or abdominal squirming movements made by each mouse during the following 15 minute period is counted. The experiment is repeated with another group of 5 mice and the mean number of writhes per mouse for a group of 10 mice is calculated.
Drug-treated and vehicle-treated control groups are compared and the percentage protection conferred by the drug is calculated: [formula] where c=mean number of writhes in the control group where t=mean number of writhes in the test drug group

[3] = read-out: % change 5-HETE (5-hydroxyeicosatetraenoic acid)
[4] = read-out: % change leukotriene B4
[5] = read-out: % change prostaglandin E2
[6] = read-out: % change thromboxane B2

Q: Which results are given for `C=CC/C=C\C[C@H]1CC[C@@](CC)(CC(=O)O)c2[nH]c3c(C)cccc3c21` (relative stereo) [Example 4, [1, 4 (Z)]-1-Ethyl-4-(2,5-hexadienyl)-2,3,4,9-tetrahydro-8-methyl-1H-carbazole-1-acetic Acid]?
A: inhibition at 10 µM (lipoxygenase; [3]): 94%; inhibition at 10 µM (lipoxygenase; [4]): 94%; inhibition at 10 µM (cyclooxygenase; [5]): 19%; inhibition at 10 µM (cyclooxygenase; [6]): 88%; % Inhibition [1]: 43%; % Inhibition [2]: 23%

Q: How did the inhibition at 10 µM (lipoxygenase; [3]) turn out when `C=CCCCCC1CCC(CC)(CC(=O)O)c2[nH]c3c(CC)cccc3c21` (single isomer, unassigned) [Example 1, 1,8-Diethyl-4(5-hexenyl)-2,3,4,9-tetrahydro-1H-carbazole-1-acetic Acid] was run?
A: Its inhibition at 10 µM is 92%.

Q: And the inhibition at 10 µM (lipoxygenase; [4])?
A: The inhibition at 10 µM was 93%.

Q: What about the inhibition at 10 µM (cyclooxygenase; [5]) of the same compound?
A: Its inhibition at 10 µM is 31%.

Q: What about the inhibition at 10 µM (cyclooxygenase; [6]) of the same compound?
A: The inhibition at 10 µM was 82%.

Q: What about the “% Inhibition” value [1] of the same compound?
A: The value was 0%.

Q: What about the “% Inhibition” value [2] of the same compound?
A: The value was 0%.

Q: Which results are given for `C=CCCCCC1CCC(CC)(CC(=O)O)c2[nH]c3c(C)cccc3c21` (single isomer, unassigned; isomer a) [Example 3, 1-Ethyl-4-(5-hexenyl)-2,3,4,9-tetrahydro-8-methyl-1H-carbazole-1-acetic Acid (Isomer A)]?
A: % Inhibition [1]: 19%; % Inhibition [2]: 10%

Q: With `C=CCCCCC1CCC(CC)(CC(=O)O)c2[nH]c3c(C)cccc3c21` (single isomer, unassigned; isomer b) [Example 2, 1-Ethyl-4-(5-hexenyl)-2,3,4,9-tetrahydro-8-methyl-1H-carbazole-1-acetic Acid (Isomer B)] as the compound, how does the inhibition at 10 µM (lipoxygenase; [3]) read?
A: The inhibition at 10 µM was 92%.

Q: What about the inhibition at 10 µM (lipoxygenase; [4]) of the same compound?
A: The inhibition at 10 µM was 95%.

Q: What about the inhibition at 10 µM (cyclooxygenase; [5]) of the same compound?
A: Its inhibition at 10 µM is -22%.

Q: What about the inhibition at 10 µM (cyclooxygenase; [6]) of the same compound?
A: Its inhibition at 10 µM is 80%.

Q: And the “% Inhibition” value [1]?
A: Its value is 28%.

Q: And the “% Inhibition” value [2]?
A: The value was 0%.

Source: patent publication US4886826A, “Substituted 2,3,4,9-tetrahydro-1H-carbazole-1-acetic acid derivatives, composition and use” (American Home Products Corporation, priority 1989, dated 1989)
